Assays:
[1] = microbe, parasite or virus in culture; details: Mycobacterium tuberculosis, 72 h, read-out: pIC50 (converted)
[2] = microbe, parasite or virus in culture; details: Mycobacterium tuberculosis, 96 h, read-out: pIC50 (converted)

Compound | IC50 [1] [µM] | IC50 [2] [µM]
O=C(Cn1ccc2ccccc21)N1CCCC1 | 60 | 162
Cc1cccc(NCC(=O)NC2CCCCC2)n1 | 152 | 148
CC(CNC(=O)c1ccc(Cl)cn1)Cn1ccnc1 (stereo not drawn) | 159 | 176
Cc1ccc(C2CCCN2CCS(C)(=O)=O)s1 (stereo not drawn) | 205 | > 501
O=C(NCc1ccc(Br)o1)[C@@H]1CCCO1 | 242 | > 501
OCCC1CCN(Cc2ccccc2)C1 (stereo not drawn) | > 501 | > 501
COc1cccc(OCC(=O)NCC2CCCO2)c1 (stereo not drawn) | 194 | 145
O=C(Nc1ccnc(CO)c1)c1ccc(F)cc1I | 367 | 433
CCc1nc(CN2CCCN(Cc3noc(C4CC4)n3)CC2)cs1 | > 50.1 | > 50.1
FC(F)Oc1cccc(N2CCNCC2)c1 | 147 | 347
CSCCC(CO)NC(=O)c1occc1C(C)C (stereo not drawn) | 258 | > 501
Cn1ccsc1=NC(=O)c1ccc(OCC(N)=O)cc1 | > 501 | > 501
CCc1ccc(OCn2cc(N)cn2)cc1 | 292 | 134
CCCn1cc(CNc2ccc(F)cn2)cn1 | 160 | 234
O=C1NCC(C(=O)NCCCc2ccc(Cl)cc2)N1 (stereo not drawn) | > 501 | > 501
COc1ccc(CNC(=O)CCC2CCCO2)cn1 (stereo not drawn) | 91.5 | > 501
O=C(NCCOc1ncccc1Cl)c1cc(Cl)c[nH]1 | 188 | 287
CC(C)N(C)S(=O)(=O)NCCc1cccs1 | 182 | 206
NC(=O)C1(c2cnccn2)CCCN1C(=O)Cc1ccsc1 (stereo not drawn) | > 50.1 | > 50.1
Cc1cc(C)c(C#N)c(N2CCOCC(CO)C2)n1 (stereo not drawn) | > 501 | > 501
COc1ccc(S(=O)(=O)N2CC(NCC3CC3)C2)cc1 | 209 | > 501
CC(=O)NCC1CN(c2ncccc2F)CCO1 (stereo not drawn) | 243 | 210
O=C(O)c1cc(-c2ccoc2)cc(S(=O)(=O)NC2CC2)c1 | > 50.1 | > 50.1
CC(C)c1ccoc1C(=O)N(C)c1cc(C#N)ccn1 | 140 | > 501
CN(CCc1ccccn1)Cc1nccn1Cc1ccccc1 | 43.5 | > 50.1
N#Cc1cccnc1N1CCOC(c2nccs2)C1 (stereo not drawn) | 138 | > 501

Compound | IC50 [1] [µM] | IC50 [2] [µM]
CC(C(=O)Nc1ccc(Br)cc1)n1cnnn1 (stereo not drawn) | 393 | 199
CCCNC(=O)c1ccc(C(=O)OC)cc1 | 120 | > 501
N[C@H]1CCCN(S(=O)(=O)c2ccc(C(=O)NCC(F)F)cc2)C1 | > 50.1 | > 50.1
O=C(Nc1cccnc1)[C@H]1COC[C@H]2CN(C3CCCC3)C[C@H]21 | > 50.1 | > 50.1
FC1(F)CCNCC12CCN(c1ncccn1)C2 (stereo not drawn) | > 50.1 | > 50.1
CCc1nc(CNC)cs1 | 305 | 236
NC(c1cncc(Br)c1)C1CC1 (stereo not drawn) | > 501 | > 501
CC(=O)N1CCc2onc(-c3ccc(F)c(F)c3)c2C1 | 393 | 262
CC(c1ccccn1)N(C)C(=O)NCCn1c(=O)oc2ccccc21 (stereo not drawn) | > 50.1 | > 50.1
Cc1cccc(NCCCNC(=O)c2cccs2)n1 | > 501 | > 501
Cc1ncsc1C(=O)NC(C)C(C)C (stereo not drawn) | > 501 | > 501
CCOC(=O)c1cccnc1NCc1cnn(C)c1C | 180 | > 501
CCc1cc2c(N3CCCC(c4ccn[nH]4)C3)ncnc2s1 (stereo not drawn) | 9.09 | 12.6
Cc1ccc2c(c1)OC(C)CN2C(=O)c1ccccn1 (stereo not drawn) | > 501 | > 501
CC1CCC(NC(=O)Cn2cnc(C#N)n2)CC1 (stereo not drawn) | 101 | 98.1
Cc1cc(C[C@@H]2COC[C@H]2NCc2ccc(C(C)C)cc2)on1 | 34.6 | 11.5
CCc1ccc(CN2CC(N3CCOCC3)C2)o1 | 129 | 188
COCc1nn(Cc2cccc3cccnc23)c(=O)o1 | 16.8 | 51.6
CN(Cc1cc(Br)cs1)C(=O)CC1(N)CCC1 | 158 | > 501
Cc1ccc(OCCSCCn2nc3ccccn3c2=O)cc1 | > 50.1 | > 50.1
CC(C)OCc1cccc(CNc2cnn(C)c(=O)c2Cl)c1 | 19.1 | 5.63
CS(=O)(=O)NC(c1ccc(F)cc1)c1cccnc1 (stereo not drawn) | 338 | > 501
Cc1cccc(CC(=O)N2CCn3cnnc3C2)c1 | 170 | 187
O=C(NCCNc1ccc(C(F)(F)F)cn1)c1ccc(Cl)cc1F | 25.1 | 19.3
Cc1ccc(CNC(=O)c2cnn(C)c2)cc1F | 275 | > 501
Cc1cc(OCC(=O)NCc2ccccc2F)no1 | 73.3 | 118

Compound | IC50 [1] [µM] | IC50 [2] [µM]
Clc1ccc2c(c1)CNCCO2 | 33.4 | 67.8
Cc1cc(C)c(C)c(OCC(=O)N2CCN(C)CC2)c1 | 111 | 129
CC(C)COCC(O)CNc1nnc(C(C)C)s1 (stereo not drawn) | 111 | 86.9
CCOc1ccc(CN2CCc3nc4ccsc4c(=O)n3CC2)cc1 | 37.8 | 16.3
Fc1ccccc1OC1CCN(CCn2cc3ccccc3n2)CC1 | > 50.1 | 47.9
O=C(NCc1n[nH]c2c1CCCCC2)c1cnn2c1CCCC2 | > 50.1 | > 50.1
Cc1cccc(N2CCN(CCCN)CC2)c1 | > 501 | > 501
O=C(NCCc1cccnc1)c1cc(C2CC2)on1 | > 501 | > 501
CNc1cc(C(=O)NCC(OC)c2cccs2)ccn1 (stereo not drawn) | 22.9 | > 501
CCN(C)c1ccc(CNC(=O)CCn2cc(C)cn2)cc1F | > 50.1 | > 50.1
O=C(CCn1cccc1)NCc1ccco1 | 96 | > 501
CNS(=O)(=O)c1ccc(C(=O)Nc2ccc(F)cc2)o1 | > 501 | > 501
CCNc1ccnc(N2Cc3cnn(Cc4ccc(F)cc4)c3C2)n1 | > 50.1 | 27.4
CC(C)c1csc(C(=O)N2CCOc3ncccc32)n1 | 139 | 231
CC(C)C[C@H](N)C(=O)N(C)c1ccccc1 | 242 | 225
COc1ccc(C(=O)CCN(C)C)cc1OC | 276 | 285
NCc1cccc(OCc2ccccn2)c1 | 187 | > 501
Cn1c(C2CC2)nc2c1CCN(Cc1nc(-c3ccsc3)no1)C2 | 16.2 | > 50.1
CN(Cc1cccc(F)c1)C(=O)c1cnccn1 | > 501 | > 501
CN(C)c1cc(C2CCCN(C(=O)c3noc4c3CCCC4)C2)ccn1 (stereo not drawn) | 40 | 35.7
CCc1nnsc1C(=O)NC(CC(C)C)C(=O)OC (stereo not drawn) | > 50.1 | > 50.1
CNc1nc(C(=O)NC2COc3ccccc3C2)cs1 (stereo not drawn) | 130 | 262
COc1ccc(NC(=O)c2ccc(S(N)(=O)=O)o2)cc1 | > 501 | > 501
CNC(=O)c1sc(NC2CC2)nc1C | 72.7 | 88.1
O=C(NCc1ccco1)Nc1nc2c(s1)COCC2 | > 501 | > 501
CC1CCCN(c2cc(CNS(C)(=O)=O)ccn2)C1 (stereo not drawn) | 449 | 277

Compound | IC50 [1] [µM] | IC50 [2] [µM]
Nc1ccc(CNc2ccc(C(F)(F)F)nn2)cn1 | > 501 | > 501
NCCNS(=O)(=O)c1ccc(-c2ccccc2)cc1 | 160 | 171
O=C(Nc1cccc(CO)n1)Nc1ccccc1Cl | 246 | > 501
CC(=O)c1ccc(Cl)c(S(=O)(=O)NC(CN)C2CC2)c1 (stereo not drawn) | 116 | 111
CCN1C(=O)C2(CCOCC2)c2cc(NC(=O)c3cnoc3C)ccc21 | > 50.1 | > 50.1
CCS(=O)(=O)NCCOc1ccc2c(c1)OCO2 | 230 | 204
CN1C(=O)c2ccc(C(=O)NC3CC3)cc2C1=O | > 501 | > 501
CC(C)CC(O)CNC(=O)c1cc(F)ccc1F (stereo not drawn) | 238 | 57.2
COc1cc(OC)c(NC(=O)Cn2ccnc2)cc1Cl | 243 | 264
CC(C)CS(=O)(=O)NCc1ccc2c(c1)OCO2 | 183 | > 501
Cc1ccccc1OCC(O)CN1CCC[C@@H]1CO (stereo partly drawn) | 280 | > 501
O=C(CCc1ccccc1)N1CC(c2cccnc2)C1 | 45.7 | 25.3
CN(C)c1cc(Cn2cnc3sccc3c2=O)ccn1 | > 501 | > 501
CC(C)Nc1nc(N2CCCC2)nc2c1CN(c1ncc(F)cn1)CC2 | 46.4 | 28.3
CCn1c(SCC(N)=O)nnc1-c1cc(Br)cs1 | 254 | 249
Cc1nc(CSCCC(=O)Nc2cccc(N3CCNC3=O)c2)cs1 | > 50.1 | > 50.1
CCN1C[C@H](NC(=O)c2ccc(Cl)s2)[C@@H](OC)C1 | 137 | > 501
OCc1cnc2c(F)cccc2c1 | > 501 | > 501
CC(C)N(Cc1ccccn1)C(=O)c1cc(Cl)c[nH]1 | > 501 | > 501
N[C@H]1CN(S(=O)(=O)c2cccc(Cl)c2)C[C@@H]1C1CC1 | 363 | > 501
CCC[C@H]1CN(S(=O)(=O)c2ccnn2CCC)C[C@@H]1N | 283 | > 501
Cc1nonc1NC(=O)CCn1cc(Br)ccc1=O | > 50.1 | > 50.1
CCOC(=O)Nc1ccc2c(c1)OCCO2 | > 501 | 325
Cc1cc(C(C)NC(=O)CN2CSCC2=O)c(C)s1 (stereo not drawn) | 274 | > 501
CC1(NC(=O)CC2CCc3ccccc32)CCOCC1 (stereo not drawn) | > 50.1 | > 50.1
CCn1ccc(C(=O)N(C)Cc2cccnc2OC)n1 | > 501 | 212
